Measured values: PMC11341654 (2024)

Legend:
[1] = protonated peptides irradiated in the gas phase; VUV or soft X-ray photon, carbon ions; conditions: cited from earlier work
[2] = UV irradiation in solution; conditions: cited from earlier work
[3] = gas phase; photoabsorption in the VUV as well as X-ray photon energy range (30 to 545 eV); conditions: cited from earlier work
[4] = deprotonated peptide anions in the gas phase, UV photoabsorption at 220 nm (ion trap); conditions: up to 100–500 ms
[5] = isolated peptide ions in the gas phase (ion trap), UV photoabsorption at 220 nm; conditions: up to 100–500 ms

| cleaved bond [4] | Substance | cleaved bond [1] | cleaved bond [2] | cleaved bond [3] | cleaved bond [5] |
| --- | --- | --- | --- | --- | --- |
|  | (POG)10 | Gly-Pro, major | Gly-Pro, major |  |  |
|  | (PPG)10 | Gly-Pro, major | Gly-Pro, major |  |  |
| G-P and P-P and E-P and A-P | PGGPPGPKGNSGEPGAPGSKGDTGAK |  |  | Gly-Pro, major | Gly-Pro, major and Pro-Pro and Glu-Pro and Ala-Pro and Asp-Thr and K-G |
